“Also recorded” adds a separate entry of the source.
Columns and labels:
PPARγ = PPARγ (Homo sapiens, UniProt P37231); test: Nuclear receptor specificity luciferase reporter assay in HepG2 cells
Description: (§1) For transient transfection, HepG2 cells were seeded at the density of 40,000 cells/cm^2. […] The next day, cells were challenged with tested ligands in indicated concentrations for 5 h. […] All the other transient transfection reporter gene assays were performed with Lipofectamine® 3000 (ThermoFisher Scientific). Briefly, cells were transfected with 150 ng/well luciferase reporter gene constructs (p(DR3)3-luc, SHP-luc, p3A4-luc, pTAT-(GRE)2-TK-luc, p2B6-luc, pGL4.35[luc2P⁄9XGAL4UAS⁄Hygro]), FXRE-luc together with 100 ng/well of the corresponding full-length fragment nuclear receptor expression vectors (pSG5-hVDR, pSG5-hFXR, pSG5-hRXRα, pSG5-hPXR, CAR3 variant) or the ligand binding domains of human, pCMX-GAL4-hFXR, pCMX-GA4L-LXRα, pCMX-GA4L-LXRα, pCMX-GA4L-TRα, pCMX-GA4L-PPARα, pCMX-GAL4-PPARγ, pCMX-GAL4-PPARδ) and 30 ng/well of pRL-TK Renilla luciferase vector 24 h prior to the treatment. […] The firefly luciferase activity was measured using the Dual Luciferase® Reporter Assay System (Promega) and normalized to Renilla luciferase activity. Experiments in an agonistic mode were performed with OCA, CDCA or tested compounds (all compounds at 10 μM). […] EC50 and IC50 were calculated using GraphPad PRISM ver. […]
(§2) Data were normalized to Renilla luciferase activity and are expressed as fold activation relative to control (nontreated, NT) cells. […]

NCI-H716 cells [1] = test: GLP-1 secretion (ELISA) in differentiated NCI-H716 cells; format: cell-based, human; conditions: 10 µM, 2 h, listed as 7-ELCA
PPARα = PPARα (Homo sapiens, UniProt Q07869); test: Nuclear receptor specificity luciferase reporter assay in HepG2 cells
Description: as §1, §2

[2] = test system: GPBAR1 mRNA, NCI-H716 cells; test: GPBAR1 mRNA expression in differentiated NCI-H716 cells; format: cell-based, human; conditions: 10 µM, 2 h
Description: FIGURE 8 Effects of 7-alkylated derivatives of CDCA and 7-ELCA on the membrane receptor GPBAR1. […]. (B) CRE-luc activation depends on the presence of GPBAR1. (C) Effects of LCA and 7-ELCA (both at 10 µM) on intracellular generation of cAMP in differentiated NCI-H716 cells after 30 min treatment. The increase in cAMP level (ΔcAMP) is presented as the difference between cAMP concertation in the treated sample after subtraction of the cAMP in the nontreated control sample. (D) Concentration-response curves for activation of GPBAR1 by LCA and 7-ELCA. EC50 values were calculated using nonlinear fitting of concentration-response curves. […] (G) 7-ELCA (10 µM) increases GLP-1 secretion in siRNA control but not in siRNA Gpbar1 transfected GLUTag cells after 1 h treatment. GLP-1 was normalized to protein concentration and GPBAR1 mRNA expression to GAPDH mRNA. Data are presented as a fold to control nontreated (NT) samples. Forskolin (FSK, 10 µM) was used as a GPBAR1-independent activator of cAMP production.

NCI-H716 cells [3] = test: cAMP determination (cAMP-Glo) in differentiated NCI-H716 cells; format: cell-based, human; conditions: 10 µM, 30 min, compared to 10 µM LCA
Description: Differentiated NCI-H716 cells were serum-starved, washed in PBS, and the cell culture medium was changed to Hanks' Balanced Salt solution (HBSS) supplemented with 0.2% (w/v) BSA and 500 µM 3-isobutyl-1-methylxanthine and incubated for 45 min at 37°C. Cells were stimulated with tested compounds or forskolin for 30 min, and the amount of cAMP generated was measured using the cAMP-Glo™ Assay (V1501, Promega, […], United States). The changes in cAMP levels (ΔcAMP) are presented as cAMP levels in treated samples after subtraction of the cAMP levels in the nontreated (NT) samples.
FIGURE 8 Effects of 7-alkylated derivatives of CDCA and 7-ELCA on the membrane receptor GPBAR1. […] . (B) CRE-luc activation depends on the presence of GPBAR1. (C) Effects of LCA and 7-ELCA (both at 10 µM) on intracellular generation of cAMP in differentiated NCI-H716 cells after 30 min treatment. The increase in cAMP level (ΔcAMP) is presented as the difference between cAMP concertation in the treated sample after subtraction of the cAMP in the nontreated control sample. (D) Concentration-response curves for activation of GPBAR1 by LCA and 7-ELCA. EC50 values were calculated using nonlinear fitting of concentration-response curves. […] (G) 7-ELCA (10 µM) increases GLP-1 secretion in siRNA control but not in siRNA Gpbar1 transfected GLUTag cells after 1 h treatment. […]

PPARβ/δ = PPARβ/δ (Homo sapiens, UniProt Q03181); test: Nuclear receptor specificity luciferase reporter assay in HepG2 cells
PPARβ/δ, sequence (Q03181 211-439 limits assumed): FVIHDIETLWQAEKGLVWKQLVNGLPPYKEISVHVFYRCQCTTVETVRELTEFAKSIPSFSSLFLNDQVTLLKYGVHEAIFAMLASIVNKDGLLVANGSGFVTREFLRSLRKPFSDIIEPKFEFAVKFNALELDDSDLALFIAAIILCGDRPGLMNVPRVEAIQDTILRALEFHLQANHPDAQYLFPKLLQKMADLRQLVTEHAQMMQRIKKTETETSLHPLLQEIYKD

thyroid receptor (TRα) = thyroid receptor (TRα) (Homo sapiens, UniProt P10827); test: as above
thyroid receptor (TRα), sequence (P10827 163-410 isoform P10827-2 limits assumed): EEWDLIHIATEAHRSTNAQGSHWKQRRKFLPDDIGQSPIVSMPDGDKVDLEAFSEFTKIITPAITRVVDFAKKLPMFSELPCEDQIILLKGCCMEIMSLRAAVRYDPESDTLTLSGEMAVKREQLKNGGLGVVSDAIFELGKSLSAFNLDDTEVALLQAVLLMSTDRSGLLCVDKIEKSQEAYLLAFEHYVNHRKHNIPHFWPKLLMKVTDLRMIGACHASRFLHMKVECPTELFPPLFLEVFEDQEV

[4] = biological target: constitutive androstane receptor (CAR) (Homo sapiens, UniProt Q14994, DEL233-236); test: as above
constitutive androstane receptor (CAR), sequence (Q14994 with tags, fused parts or gaps isoform Q14994-8 DEL233-236): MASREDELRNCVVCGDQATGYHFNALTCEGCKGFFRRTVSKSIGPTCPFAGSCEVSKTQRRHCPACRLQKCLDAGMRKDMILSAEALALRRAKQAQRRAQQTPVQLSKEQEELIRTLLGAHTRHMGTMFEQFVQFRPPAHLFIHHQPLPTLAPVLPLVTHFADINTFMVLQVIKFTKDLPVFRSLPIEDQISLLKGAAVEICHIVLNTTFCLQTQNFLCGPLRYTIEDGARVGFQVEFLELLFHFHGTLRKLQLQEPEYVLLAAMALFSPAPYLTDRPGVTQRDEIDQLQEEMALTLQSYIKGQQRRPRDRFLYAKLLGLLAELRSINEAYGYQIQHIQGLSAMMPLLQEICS
constitutive androstane receptor (CAR), sequence (P19793 whole entry partner): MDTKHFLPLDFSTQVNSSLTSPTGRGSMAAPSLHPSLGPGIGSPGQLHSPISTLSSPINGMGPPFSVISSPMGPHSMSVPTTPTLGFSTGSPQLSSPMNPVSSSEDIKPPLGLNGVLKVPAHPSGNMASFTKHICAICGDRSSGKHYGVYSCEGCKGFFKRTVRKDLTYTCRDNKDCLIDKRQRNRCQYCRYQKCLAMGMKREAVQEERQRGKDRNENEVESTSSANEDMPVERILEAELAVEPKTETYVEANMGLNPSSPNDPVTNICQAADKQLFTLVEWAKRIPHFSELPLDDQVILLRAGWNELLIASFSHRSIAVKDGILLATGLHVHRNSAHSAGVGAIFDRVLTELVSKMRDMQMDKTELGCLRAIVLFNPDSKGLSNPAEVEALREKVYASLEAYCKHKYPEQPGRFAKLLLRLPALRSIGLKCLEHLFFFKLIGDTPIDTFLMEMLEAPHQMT
Description: as §1, §2

GLUTag cells [5] = test: GLP-1 secretion in siRNA control or Gpbar1 siRNA transfected GLUTag cells; format: cell-based, murine; conditions: 10 µM, 1 h
Description: GLUTag cells were transfected with non-targeting scrambled siRNA (siRNA control) or with the combination of siRNAs specific for Gpbar1 (Silencer® Select Pre-designed siRNA, LOT# ASO2HKN6 and ASO2HKN7, Life Technologies, Carlsbad, CA, United States) twice at 24 and 72 h after seeding using Lipofectamine RNAiMAX reagent (Life Technologies, Carlsbad, CA, United States). GLUTag cells were then treated with tested molecules at the day 4 post-seeding.
FIGURE 8 Effects of 7-alkylated derivatives of CDCA and 7-ELCA on the membrane receptor GPBAR1. […] . (B) CRE-luc activation depends on the presence of GPBAR1. (C) Effects of LCA and 7-ELCA (both at 10 µM) on intracellular generation of cAMP in differentiated NCI-H716 cells after 30 min treatment. The increase in cAMP level (ΔcAMP) is presented as the difference between cAMP concertation in the treated sample after subtraction of the cAMP in the nontreated control sample. (D) Concentration-response curves for activation of GPBAR1 by LCA and 7-ELCA. EC50 values were calculated using nonlinear fitting of concentration-response curves. […] (G) 7-ELCA (10 µM) increases GLP-1 secretion in siRNA control but not in siRNA Gpbar1 transfected GLUTag cells after 1 h treatment. GLP-1 was normalized to protein concentration and GPBAR1 mRNA expression to GAPDH mRNA. Data are presented as a fold to control nontreated (NT) samples. […]

vitamin D receptor (VDR) = vitamin D receptor (VDR) (Homo sapiens, UniProt P11473); test: Nuclear receptor specificity luciferase reporter assay in HepG2 cells
vitamin D receptor (VDR), sequence (P11473 whole entry): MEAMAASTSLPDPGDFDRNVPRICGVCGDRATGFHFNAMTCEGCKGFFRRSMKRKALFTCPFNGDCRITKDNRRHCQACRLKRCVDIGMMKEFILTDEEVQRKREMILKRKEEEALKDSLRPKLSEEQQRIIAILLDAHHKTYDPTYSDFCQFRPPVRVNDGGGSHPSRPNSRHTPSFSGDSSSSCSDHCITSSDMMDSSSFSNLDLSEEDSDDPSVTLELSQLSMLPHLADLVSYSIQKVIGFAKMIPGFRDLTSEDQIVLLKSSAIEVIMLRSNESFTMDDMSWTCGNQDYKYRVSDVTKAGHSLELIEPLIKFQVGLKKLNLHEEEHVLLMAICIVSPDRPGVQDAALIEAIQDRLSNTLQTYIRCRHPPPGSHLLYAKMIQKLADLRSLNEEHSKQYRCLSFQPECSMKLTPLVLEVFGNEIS
Description: as §1, §2

LXRα = LXRα (Homo sapiens, UniProt Q13133); test: as above
LXRα, sequence (Q13133 209-447 limits assumed): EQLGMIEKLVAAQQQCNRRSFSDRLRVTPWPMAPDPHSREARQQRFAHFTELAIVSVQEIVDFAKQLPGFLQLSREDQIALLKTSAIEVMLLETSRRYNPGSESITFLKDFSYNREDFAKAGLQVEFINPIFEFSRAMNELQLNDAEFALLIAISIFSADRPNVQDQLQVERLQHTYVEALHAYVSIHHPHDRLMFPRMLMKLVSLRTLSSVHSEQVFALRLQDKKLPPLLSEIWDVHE
Description: as §1, §2

[6] = biological target: glucocorticoid receptor (GR) (Homo sapiens, UniProt P04150); test: as above
glucocorticoid receptor (GR), sequence (P04150 whole entry): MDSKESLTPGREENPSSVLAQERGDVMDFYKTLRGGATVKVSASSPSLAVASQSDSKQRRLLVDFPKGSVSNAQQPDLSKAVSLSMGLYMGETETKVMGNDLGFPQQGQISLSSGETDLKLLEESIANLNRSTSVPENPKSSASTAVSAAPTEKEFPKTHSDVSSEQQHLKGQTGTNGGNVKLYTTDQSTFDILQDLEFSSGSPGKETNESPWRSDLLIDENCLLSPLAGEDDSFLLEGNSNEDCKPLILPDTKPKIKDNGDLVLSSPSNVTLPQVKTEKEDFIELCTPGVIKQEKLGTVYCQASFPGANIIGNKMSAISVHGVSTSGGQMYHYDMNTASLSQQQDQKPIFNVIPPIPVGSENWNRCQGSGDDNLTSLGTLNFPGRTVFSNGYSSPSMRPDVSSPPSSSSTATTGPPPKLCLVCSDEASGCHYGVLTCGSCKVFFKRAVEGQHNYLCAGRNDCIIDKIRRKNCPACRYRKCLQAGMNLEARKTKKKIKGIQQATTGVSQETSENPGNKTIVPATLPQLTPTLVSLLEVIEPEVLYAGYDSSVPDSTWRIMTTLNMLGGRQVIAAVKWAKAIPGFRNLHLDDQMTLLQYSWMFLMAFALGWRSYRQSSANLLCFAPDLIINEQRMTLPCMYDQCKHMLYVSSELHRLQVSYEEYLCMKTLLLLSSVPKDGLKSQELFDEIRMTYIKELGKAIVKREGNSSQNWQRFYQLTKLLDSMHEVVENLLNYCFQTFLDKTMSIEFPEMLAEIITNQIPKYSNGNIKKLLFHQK
Description: as §1, §2

GLUTag cells [7] = test: MTS viability assay; format: cell-based, murine; conditions: Mus musculus, 24 h, read-out: IC50, cell viability
Description: In addition, we examined the potential effect of 7-ethylidene-lithocholic acid (7-ELCA) on viability in murine colonic GLUTag cells. IC50 for 7-ELCA in the cell line remains above 200 µM.
Figure S1. Cell viability in GluTag cells was determined using the Cell Titer 96 Aqueous One Solution Cell Proliferation Assay (Promega) after treatment with 7-ethylidene-lithocholic acid (7-ELCA) for 24 h. Vehicle (0.1% DMSO) and background (10% SDS; v/v, toxic control) controls of cell viability were set to be 100% and 0%, respectively. IC50 is greater than 200 µM.

PPARα, sequence (Q07869 239-466 limits assumed): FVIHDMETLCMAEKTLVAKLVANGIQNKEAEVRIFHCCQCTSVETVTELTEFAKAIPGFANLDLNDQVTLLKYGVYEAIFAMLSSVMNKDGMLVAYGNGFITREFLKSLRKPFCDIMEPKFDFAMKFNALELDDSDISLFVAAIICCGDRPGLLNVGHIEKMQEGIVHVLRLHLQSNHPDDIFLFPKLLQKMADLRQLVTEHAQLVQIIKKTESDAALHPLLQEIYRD
PPARγ, sequence (P37231 238-503 limits assumed): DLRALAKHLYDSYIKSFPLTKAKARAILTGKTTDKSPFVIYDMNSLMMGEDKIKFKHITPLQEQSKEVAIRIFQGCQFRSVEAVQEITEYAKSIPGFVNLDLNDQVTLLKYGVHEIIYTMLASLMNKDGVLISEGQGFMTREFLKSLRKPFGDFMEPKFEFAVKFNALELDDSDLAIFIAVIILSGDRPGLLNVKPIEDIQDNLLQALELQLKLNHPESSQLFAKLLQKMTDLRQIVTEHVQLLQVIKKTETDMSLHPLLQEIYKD

## C/C=C1\C[C@@H]2C[C@H](O)CC[C@]2(C)[C@H]2CC[C@]3(C)[C@@H]([C@H](C)CCC(=O)O)CC[C@H]3[C@H]12 [2a, (E)-3α-Hydroxy-7-ethylidene-5β-cholan-24-oic acid]
PPARγ; 10 µM, with rosiglitazone 1 µM
  antagonism of PPARγ activation by model ligand: did not antagonize
PPARγ; agonistic assay, 24 h
  activation of PPARγ: did not activate
NCI-H716 cells [1]
  GLP-1 secretion: significant increase of GLP-1 secretion; also recorded: significantly stronger compared to LCA
PPARα; 10 µM, with fenofibrate 1 µM
  antagonism of PPARα activation by model ligand: did not antagonize
PPARα; agonistic assay, 24 h
  activation of PPARα: did not activate
[2]
  GPBAR1 mRNA expression: increase GPBAR1 mRNA expression
NCI-H716 cells [3]
  intracellular generation of cAMP: more significant production of cAMP
PPARβ/δ; 10 µM, with GW501516 1 µM
  antagonism of PPARβ/δ activation by model ligand: did not antagonize
PPARβ/δ; agonistic assay, 24 h
  activation of PPARβ/δ: did not activate
Thyroid receptor (TRα); 10 µM, with thyroxin 1 µM
  antagonism of TRα activation by model ligand: did not antagonize
Thyroid receptor (TRα); agonistic assay, 24 h
  activation of TRα: did not activate
[4]; 10 µM, with CITCO 1 µM
  antagonism of CAR activation by model ligand: did not antagonize
[4]; agonistic assay, 24 h
  activation of CAR: did not activate
GLUTag cells [5]; Gpbar1 siRNA transfected GLUTag cells
  GLP-1 secretion: did not lead to the significantly increased GLP-1 production
GLUTag cells [5]; siRNA control GLUTag cells
  GLP-1 secretion: significant increase of the GLP-1 secretion
Vitamin D receptor (VDR); 10 µM, with 1α,25(OH)2vitaminD3 10 nM
  antagonism of VDR activation by model ligand: did not antagonize
Vitamin D receptor (VDR); agonistic assay, 24 h
  activation of VDR: did not activate
LXRα; 10 µM, with GW3965 1 µM
  antagonism of LXRα activation by model ligand: did not antagonize
LXRα; agonistic assay, 24 h
  activation of LXRα: did not activate
[6]; 10 µM, with dexamethasone 50 nM
  antagonism of GR activation by model ligand: did not antagonize
[6]; agonistic assay, 24 h
  activation of GR: did not activate
GLUTag cells [7]
  IC50: > 200 µM

From paper PMC8414367, “(E)-7-Ethylidene-lithocholic Acid (7-ELCA) Is a Potent Dual Farnesoid X Receptor (FXR) Antagonist and GPBAR1 Agonist Inhibiting FXR-Induced Gene Expression in Hepatocytes and Stimulating Glucagon-like Peptide-1 Secretion From Enteroendocrine Cells” (Frontiers in Pharmacology, 2021)
